Data from PubChem BioAssay (NCI).
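Each compound was tested at five concentrations against cells in 96-well plates for 48 hours. The concentration for 50% growth inhibition is given as GI50. TGI is the concentration that stops growth completely.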

What was measured:
Experiment in all cases: NCI anticancer screen, dose series, 48 h
PC-3 prostate = test system: PC-3 prostate
MCF7 breast = test system: MCF7 breast
SN12C renal = test system: SN12C renal
MDA-MB-435 = test system: MDA-MB-435
OVCAR-5 ovarian = test system: OVCAR-5 ovarian
A498 renal = test system: A498 renal
HCT-15 colon = test system: HCT-15 colon
786-0 renal = test system: 786-0 renal
NCI-H460 lung = test system: NCI-H460 lung
HL-60(TB) leukemia = test system: HL-60(TB) leukemia
LOX IMVI melanoma = test system: LOX IMVI melanoma
SNB-19 CNS = test system: SNB-19 CNS
SK-MEL-28 melanoma = test system: SK-MEL-28 melanoma
OVCAR-4 ovarian = test system: OVCAR-4 ovarian
HT29 colon = test system: HT29 colon
CAKI-1 renal = test system: CAKI-1 renal
A549 NSCLC = test system: A549 NSCLC
OVCAR-3 ovarian = test system: OVCAR-3 ovarian
UO-31 renal = test system: UO-31 renal
SNB-75 CNS = test system: SNB-75 CNS
NCI-H23 lung = test system: NCI-H23 lung
HCC-2998 colon = test system: HCC-2998 colon
IGROV1 ovarian = test system: IGROV1 ovarian
HS 578T breast = test system: HS 578T breast
SK-MEL-2 melanoma = test system: SK-MEL-2 melanoma
SK-OV-3 ovarian = test system: SK-OV-3 ovarian
HOP-62 NSCLC = test system: HOP-62 NSCLC
K-562 leukemia = test system: K-562 leukemia
SF-268 CNS = test system: SF-268 CNS
BT-549 breast = test system: BT-549 breast
NCI-H522 lung = test system: NCI-H522 lung
SF-295 CNS = test system: SF-295 CNS
OVCAR-8 ovarian = test system: OVCAR-8 ovarian
CCRF-CEM leukemia = test system: CCRF-CEM leukemia
ACHN renal = test system: ACHN renal
COLO 205 colon = test system: COLO 205 colon
T-47D breast = test system: T-47D breast
UACC-257 melanoma = test system: UACC-257 melanoma
RXF 393 renal = test system: RXF 393 renal
MALME-3M melanoma = test system: MALME-3M melanoma
SR leukemia = test system: SR leukemia
DU-145 prostate = test system: DU-145 prostate
NCI-H226 lung = test system: NCI-H226 lung
TK-10 renal = test system: TK-10 renal
HCT-116 colon = test system: HCT-116 colon
EKVX NSCLC = test system: EKVX NSCLC
KM12 colon = test system: KM12 colon
HOP-92 NSCLC = test system: HOP-92 NSCLC
M14 melanoma = test system: M14 melanoma
MOLT-4 leukemia = test system: MOLT-4 leukemia
U251 CNS = test system: U251 CNS
UACC-62 melanoma = test system: UACC-62 melanoma
SF-539 CNS = test system: SF-539 CNS
SW-620 colon = test system: SW-620 colon

COc1ccccc1N1CCN(C2=NN=C(c3cccc(Cl)c3)c3ccccc3C2)CC1
GI50 (PC-3 prostate): 443 nM
TGI (PC-3 prostate): > 33900 nM
GI50 (MCF7 breast): 351 nM
TGI (MCF7 breast): > 38000 nM
GI50 (SN12C renal): 474 nM
TGI (SN12C renal): > 100000 nM
GI50 (MDA-MB-435): 206 nM
TGI (MDA-MB-435): 497 nM
GI50 (OVCAR-5 ovarian): 498 nM
TGI (OVCAR-5 ovarian): > 37200 nM
GI50 (A498 renal): 350 nM
TGI (A498 renal): 2780 nM
GI50 (HCT-15 colon): 343 nM
TGI (HCT-15 colon): > 34200 nM
GI50 (786-0 renal): 542 nM
TGI (786-0 renal): 13200 nM
GI50 (NCI-H460 lung): 351 nM
TGI (NCI-H460 lung): 1940 nM
GI50 (HL-60(TB) leukemia): 285 nM
TGI (HL-60(TB) leukemia): 920 nM
GI50 (LOX IMVI melanoma): 418 nM
TGI (LOX IMVI melanoma): > 100000 nM
GI50 (SNB-19 CNS): 420 nM
TGI (SNB-19 CNS): > 100000 nM
GI50 (SK-MEL-28 melanoma): 2470 nM
TGI (SK-MEL-28 melanoma): > 100000 nM
GI50 (OVCAR-4 ovarian): 1190 nM
TGI (OVCAR-4 ovarian): > 100000 nM
GI50 (HT29 colon): 337 nM
GI50 (CAKI-1 renal): 410 nM
TGI (CAKI-1 renal): 13500 nM
GI50 (A549 NSCLC): 425 nM
TGI (A549 NSCLC): > 100000 nM
GI50 (OVCAR-3 ovarian): 282 nM
TGI (OVCAR-3 ovarian): 793 nM
GI50 (UO-31 renal): 708 nM
TGI (UO-31 renal): > 100000 nM
GI50 (SNB-75 CNS): 491 nM
TGI (SNB-75 CNS): 20300 nM
GI50 (NCI-H23 lung): 571 nM
TGI (NCI-H23 lung): > 100000 nM
GI50 (HCC-2998 colon): 324 nM
TGI (HCC-2998 colon): 2270 nM
GI50 (IGROV1 ovarian): 474 nM
TGI (IGROV1 ovarian): > 100000 nM
GI50 (HS 578T breast): 332 nM
GI50 (SK-MEL-2 melanoma): 743 nM
TGI (SK-MEL-2 melanoma): > 45400 nM
GI50 (SK-OV-3 ovarian): 637 nM
TGI (SK-OV-3 ovarian): 97400 nM
GI50 (HOP-62 NSCLC): 508 nM
TGI (HOP-62 NSCLC): > 65800 nM
GI50 (K-562 leukemia): 336 nM
TGI (K-562 leukemia): > 100000 nM
GI50 (SF-268 CNS): 566 nM
TGI (SF-268 CNS): > 100000 nM
GI50 (BT-549 breast): 373 nM
TGI (BT-549 breast): > 30500 nM
GI50 (NCI-H522 lung): 270 nM
GI50 (SF-295 CNS): 334 nM
TGI (SF-295 CNS): 3440 nM
GI50 (OVCAR-8 ovarian): 438 nM
TGI (OVCAR-8 ovarian): > 100000 nM
GI50 (CCRF-CEM leukemia): 333 nM
TGI (CCRF-CEM leukemia): > 100000 nM
GI50 (ACHN renal): 554 nM
TGI (ACHN renal): > 100000 nM
GI50 (COLO 205 colon): 337 nM
TGI (COLO 205 colon): 1650 nM
GI50 (T-47D breast): 1130 nM
TGI (T-47D breast): > 100000 nM
GI50 (UACC-257 melanoma): 2370 nM
TGI (UACC-257 melanoma): > 100000 nM
GI50 (RXF 393 renal): 270 nM
TGI (RXF 393 renal): 2760 nM
GI50 (MALME-3M melanoma): 630 nM
TGI (MALME-3M melanoma): > 100000 nM
GI50 (SR leukemia): 260 nM
TGI (SR leukemia): > 100000 nM
GI50 (DU-145 prostate): 367 nM
TGI (DU-145 prostate): 2370 nM
GI50 (NCI-H226 lung): 1160 nM
TGI (NCI-H226 lung): > 36300 nM
GI50 (TK-10 renal): 2320 nM
TGI (TK-10 renal): > 43200 nM
GI50 (HCT-116 colon): 337 nM
TGI (HCT-116 colon): > 36600 nM
GI50 (EKVX NSCLC): 556 nM
TGI (EKVX NSCLC): > 100000 nM
GI50 (KM12 colon): 380 nM
TGI (KM12 colon): > 100000 nM
GI50 (HOP-92 NSCLC): 1000 nM
TGI (HOP-92 NSCLC): > 22200 nM
GI50 (M14 melanoma): 316 nM
GI50 (MOLT-4 leukemia): 356 nM
TGI (MOLT-4 leukemia): > 100000 nM
GI50 (U251 CNS): 383 nM
TGI (U251 CNS): > 100000 nM
GI50 (UACC-62 melanoma): 509 nM
TGI (UACC-62 melanoma): > 100000 nM
GI50 (SF-539 CNS): 277 nM
TGI (SF-539 CNS): 847 nM
GI50 (SW-620 colon): 439 nM
TGI (SW-620 colon): > 100000 nM
